Results as given in BindingDB's records for patent US10023557 (LIFESCI PHARMACEUTICALS, INC., 2018).

Target: Plasma kallikrein (Homo sapiens, UniProt P03952)
Assay: In Vitro Enzyme Inhibition of hPK
Conditions: pH 7.5
Method: A 10 mM solution of the test compound was made in DMSO. […] A control tube containing only DMSO is included. […] 50 μL was removed from this mixture and placed into duplicate wells on a Microfluor 1Black U-bottom microtiter plate (Thermo Scientific). This plate was incubated for 5 minutes at 37° C. To each well, 50 μL of pre-warmed 2×PFR-AMC was added to start the enzymatic reaction. Cleavage of PFR-AMC was monitored in a Biotek Synergy H4 reader set at 37° C. Readings are taken every 43 seconds for 1 hour. […] The IC50 is calculated using the Gen5 (Biotek Instruments).

Chain of Plasma kallikrein (P03952 20-390 limits assumed): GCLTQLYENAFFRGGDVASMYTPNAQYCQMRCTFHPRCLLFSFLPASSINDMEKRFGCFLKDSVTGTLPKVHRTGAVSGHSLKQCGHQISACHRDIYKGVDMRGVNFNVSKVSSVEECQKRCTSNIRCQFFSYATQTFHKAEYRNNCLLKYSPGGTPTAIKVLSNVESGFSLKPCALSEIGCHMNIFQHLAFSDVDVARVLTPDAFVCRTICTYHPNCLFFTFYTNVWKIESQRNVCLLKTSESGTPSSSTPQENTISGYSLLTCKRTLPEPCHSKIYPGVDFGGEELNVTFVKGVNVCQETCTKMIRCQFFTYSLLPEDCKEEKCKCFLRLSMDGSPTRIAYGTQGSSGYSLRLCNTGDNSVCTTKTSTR
Chain of Plasma kallikrein (P03952 391-638 limits assumed): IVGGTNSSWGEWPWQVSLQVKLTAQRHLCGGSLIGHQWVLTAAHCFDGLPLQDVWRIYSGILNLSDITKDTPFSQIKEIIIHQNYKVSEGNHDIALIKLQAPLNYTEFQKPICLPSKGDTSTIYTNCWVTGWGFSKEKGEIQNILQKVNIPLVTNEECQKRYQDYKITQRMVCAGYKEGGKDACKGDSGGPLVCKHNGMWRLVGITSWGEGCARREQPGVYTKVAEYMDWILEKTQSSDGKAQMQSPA

- IC50: < 0.1 µM
SMILES: Cc1nc(N)ccc1CNC(=O)c1ccnc(CC2=CC3C=C(Cl)C=NC3C=C2)c1 (stereo unspecified) [US10023557, Example 39]
